Measured values reported in PubChem BioAssay AID328 (DTP/NCI, 2004).
Several values for one entry are separate records, joined by “and”; a condition that tells them apart may be missing. Identical values can stand only once. Toxic doses and inconclusive results are not listed.

Test system: BDF1 mice, P388 leukemia ip, median survival T/C
Test: NCI In Vivo Anticancer Drug Screen. Data for tumor model P388 Leukemia (intraperitoneal) in B6D2F1 (BDF1) mice
Conditions: endpoint: median survival time, higher = longer survival
How it was run: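 Antitumour effect was judged in vivo: survival in drug-treated mice, normalised to that of vehicle-dosed controls, gives the reported T/C.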

[1] = dose: 100.0 mg/kg/injection, schedule: Q01DX009 (ip), vehicle: saline with Tween-80
[2] = dose: 100.0 mg/kg/injection, schedule: Q04DX003 (ip), vehicle: saline with Tween-80
[3] = dose: 200.0 mg/kg/injection, schedule: Q01DX009 (ip), vehicle: saline with Tween-80
[4] = dose: 200.0 mg/kg/injection, schedule: Q04DX003 (ip), vehicle: saline with Tween-80
[5] = dose: 400.0 mg/kg/injection, schedule: Q04DX003 (ip), vehicle: saline with Tween-80
[6] = dose: 50.0 mg/kg/injection, schedule: Q01DX009 (ip), vehicle: saline with Tween-80
[7] = dose: 12.5 mg/kg/injection, schedule: Q01DX009 (ip), vehicle: saline
[8] = dose: 25.0 mg/kg/injection, schedule: Q01DX009 (ip), vehicle: saline
[9] = dose: 50.0 mg/kg/injection, schedule: Q04DX003 (ip), vehicle: saline
[10] = dose: 3.12 mg/kg/injection, schedule: Q01DX009 (ip), vehicle: water
[11] = dose: 6.25 mg/kg/injection, schedule: Q01DX009 (ip), vehicle: water
[12] = dose: 12.5 mg/kg/injection, schedule: Q01DX009 (ip), vehicle: water
[13] = dose: 25.0 mg/kg/injection, schedule: Q01DX009 (ip), vehicle: water
[14] = dose: 100.0 mg/kg/injection, schedule: Q04DX003 (ip), vehicle: Klucel (hydroxypropylcellulose) (HPC)
[15] = dose: 400.0 mg/kg/injection, schedule: Q04DX003 (ip), vehicle: Klucel (hydroxypropylcellulose) (HPC)
[16] = dose: 50.0 mg/kg/injection, schedule: Q01DX009 (ip), vehicle: saline
[17] = dose: 400.0 mg/kg/injection, schedule: Q01DX009 (ip), vehicle: saline
[18] = dose: 50.0 mg/kg/injection, schedule: Q04DX003 (ip), vehicle: saline sonified
[19] = dose: 100.0 mg/kg/injection, schedule: Q04DX003 (ip), vehicle: saline sonified
[20] = dose: 100.0 mg/kg/injection, schedule: Q01DX009 (ip), vehicle: Klucel (hydroxypropylcellulose) (HPC)
[21] = dose: 200.0 mg/kg/injection, schedule: Q01DX009 (ip), vehicle: Klucel (hydroxypropylcellulose) (HPC)
[22] = dose: 200.0 mg/kg/injection, schedule: Q04DX003 (ip), vehicle: Klucel (hydroxypropylcellulose) (HPC)

SMILES: COc1cc(C(C)O)cc(OC)c1OC (stereo not given)
- T/C [1]: 92 % of control
- T/C [2]: 95 % of control
- T/C [3]: 92 % of control
- T/C [4]: 104 % of control
- T/C [5]: 95 % of control

SMILES: CC[C@H]1CN2CCc3cc(OC)c(OC)cc3[C@@H]2C[C@@H]1C[C@@H]1c2cc(OC)c(OC)cc2CCN1CCN(CCCl)CCCl
- T/C (dose: 4.3 mg/kg/injection, schedule: Q04DX003 (ip), vehicle: saline with Tween-80): 121 % of control
- T/C (dose: 6.48 mg/kg/injection, schedule: Q04DX003 (ip), vehicle: saline with Tween-80): 108 % of control
- T/C (dose: 10.8 mg/kg/injection, schedule: Q04DX003 (ip), vehicle: saline with Tween-80): 119 % of control
- T/C (dose: 12.0 mg/kg/injection, schedule: Q04DX003 (ip), vehicle: saline with Tween-80): 153 % of control
- T/C (dose: 20.0 mg/kg/injection, schedule: Q04DX003 (ip), vehicle: saline with Tween-80): 157 % of control

SMILES: COc1ccc(NC2=NCCS2)cc1
- T/C [6]: 109 % of control
- T/C [1]: 104 % of control

SMILES: OCC(I)C(CO)[n+]1ccccc1 (stereo not given)
- T/C [7]: 107 % of control
- T/C (dose: 12.5 mg/kg/injection, schedule: Q04DX003 (ip), vehicle: saline): 88 % of control
- T/C [8]: 107 % of control
- T/C (dose: 25.0 mg/kg/injection, schedule: Q04DX003 (ip), vehicle: saline): 103 % of control
- T/C [9]: 100 % of control

SMILES: C=CC(C)(C(=O)O)C(C)C (stereo not given)
- T/C [6]: 101 % of control
- T/C [1]: 100 % of control
- T/C [3]: 97 % of control

SMILES: CC(/C=C/C(O)=C1/C(=O)CNC1=O)=C\[C@@H](C)[C@H]1O[C@@]2(C)O[C@H](C(=O)[C@@H]3O[C@@]32C)[C@@H]1C
- T/C (dose: 3.13 mg/kg/injection, schedule: Q01DX009 (ip), vehicle: saline with Tween-80): 108 % of control
- T/C (dose: 6.25 mg/kg/injection, schedule: Q01DX009 (ip), vehicle: saline with Tween-80): 105 % of control
- T/C (dose: 12.5 mg/kg/injection, schedule: Q01DX009 (ip), vehicle: saline with Tween-80): 103 % of control
- T/C (dose: 25.0 mg/kg/injection, schedule: Q01DX009 (ip), vehicle: saline with Tween-80): 100 % of control

SMILES: NC(N)=Nc1ccc(OC(=O)c2ccc(N=C(N)N)cc2)cc1
- T/C (dose: 1.56 mg/kg/injection, schedule: Q01DX009 (ip), vehicle: water): 106 % of control
- T/C [10]: 94 % of control
- T/C [11]: 103 % of control
- T/C [12]: 110 % of control
- T/C [13]: 103 % of control

SMILES: N#Cc1ccccc1-n1c(=O)c2cc3c(=O)n(-c4ccccc4C#N)c(=O)c3cc2c1=O
- T/C [3]: 162 % of control

SMILES: O=[N+]([O-])c1ccc2c(c1)Cc1cc(Br)ccc1-2
- T/C [14]: 100 % of control
- T/C [15]: 100 % of control

SMILES: CCOC(=O)CCC#N
- T/C [16]: 100 % of control
- T/C (dose: 100.0 mg/kg/injection, schedule: Q01DX009 (ip), vehicle: saline): 116 % of control
- T/C [17]: 99 % of control

SMILES: COc1cc(C(=O)N2CC2)cc(OC)c1OC
- T/C [10]: 108 % of control
- T/C [11]: 90 % of control
- T/C [12]: 99 % of control
- T/C [13]: 101 % of control
- T/C (dose: 50.0 mg/kg/injection, schedule: Q01DX009 (ip), vehicle: water): 96 % of control

SMILES: C[C@]12CCC(=O)C(O)=C1CC[C@@H]1[C@@H]2CC[C@@]2(C)[C@H]1CC[C@]2(C)O
- T/C (dose: 66.0 mg/kg/injection, schedule: Q01DX009 (ip), vehicle: saline with Tween-80): 104 % of control
- T/C [1]: 95 % of control
- T/C (dose: 150.0 mg/kg/injection, schedule: Q01DX009 (ip), vehicle: saline with Tween-80): 95 % of control
- T/C (dose: 200.0 mg/kg/injection, schedule: Q01DX009 (ip), vehicle: saline sonified): 90 % of control
- T/C (dose: 400.0 mg/kg/injection, schedule: Q01DX009 (ip), vehicle: saline sonified): 90 % of control

SMILES: CCCC(C(CC)CO)C(CC)C(O)C(CC)CO (stereo not given)
- T/C (dose: 50.0 mg/kg/injection, schedule: Q01DX005 (ip), vehicle: saline with Tween-80): 100 % of control
- T/C (dose: 100.0 mg/kg/injection, schedule: Q01DX005 (ip), vehicle: saline with Tween-80): 94 % of control
- T/C (dose: 200.0 mg/kg/injection, schedule: Q01DX005 (ip), vehicle: saline with Tween-80): 99 % of control

SMILES: Cc1[nH]c(=O)[nH]c(=O)c1I
- T/C [6]: 105 % of control
- T/C [1]: 99 % of control
- T/C [3]: 101 % of control

SMILES: C=CCNC(=O)C(Br)(CC)CC
- T/C [7]: 100 % of control
- T/C [8]: 100 % of control
- T/C [16]: 88 % of control and 100 % of control

SMILES: O=c1[nH][nH]c(=O)n1O
- T/C (dose: 200.0 mg/kg/injection, schedule: Q01DX009 (ip), vehicle: saline): 100 % of control
- T/C [17]: 95 % of control

SMILES: N#C/C(=C/Cc1ccccc1)Nc1ccccc1
- T/C [1]: 100 % of control
- T/C [2]: 113 % of control
- T/C [3]: 115 % of control
- T/C [4]: 118 % of control
- T/C (dose: 400.0 mg/kg/injection, schedule: Q01DX009 (ip), vehicle: saline with Tween-80): 115 % of control
- T/C [5]: 104 % of control

SMILES: O=[N+]([O-])c1ccc2nccc(Cl)c2c1
- T/C (dose: 25.0 mg/kg/injection, schedule: Q04DX003 (ip), vehicle: Klucel (hydroxypropylcellulose) (HPC)): 100 % of control
- T/C (dose: 50.0 mg/kg/injection, schedule: Q04DX003 (ip), vehicle: Klucel (hydroxypropylcellulose) (HPC)): 95 % of control

SMILES: CC[n+]1ccc2cc(OC)c(OC)cc2c1Cc1ccc(OC)c(OC)c1
- T/C [8]: 109 % of control
- T/C [16]: 118 % of control
- T/C [9]: 90 % of control
- T/C (dose: 100.0 mg/kg/injection, schedule: Q04DX003 (ip), vehicle: saline): 104 % of control

SMILES: COc1ccc2c(c1C)CCC1(C(=O)O)CC(C)C(O)CC21 (stereo not given)
- T/C [18]: 95 % of control
- T/C [19]: 100 % of control
- T/C (dose: 200.0 mg/kg/injection, schedule: Q04DX003 (ip), vehicle: saline sonified): 100 % of control

SMILES: CCCCCCCCCCCCCCCC(=O)OCc1cc(=O)c(O)co1
- T/C [20]: 118 % of control
- T/C [14]: 104 % of control
- T/C [21]: 109 % of control
- T/C [22]: 104 % of control
- T/C (dose: 400.0 mg/kg/injection, schedule: Q01DX009 (ip), vehicle: Klucel (hydroxypropylcellulose) (HPC)): 95 % of control
- T/C [15]: 113 % of control

SMILES: COc1cc2c(cc1OC)[C@]13C[C@H](OC)CC=C1CCN3CCC2
- T/C (dose: 10.0 mg/kg/injection, schedule: Q01DX009 (ip), vehicle: alcohol): 86 % of control
- T/C (dose: 20.0 mg/kg/injection, schedule: Q01DX009 (ip), vehicle: alcohol): 100 % of control
- T/C (dose: 40.0 mg/kg/injection, schedule: Q01DX009 (ip), vehicle: alcohol): 100 % of control
- T/C (dose: 80.0 mg/kg/injection, schedule: Q01DX009 (ip), vehicle: alcohol): 95 % of control

SMILES: O=[N+]([O-])c1ccc(N2CCN=N2)cc1
- T/C (dose: 25.0 mg/kg/injection, schedule: Q01DX010 (ip), vehicle: saline): 104 % of control
- T/C (dose: 25.0 mg/kg/injection, schedule: Q04DX003 (ip), vehicle: saline sonified): 100 % of control
- T/C (dose: 50.0 mg/kg/injection, schedule: Q01DX010 (ip), vehicle: saline): 123 % of control
- T/C [18]: 95 % of control
- T/C [19]: 86 % of control

SMILES: NC(=O)NC(=O)/C=C/C(=O)O
- T/C (dose: 25.0 mg/kg/injection, schedule: Q04DX003 (ip), vehicle: saline with Tween-80): 91 % of control
- T/C (dose: 50.0 mg/kg/injection, schedule: Q04DX003 (ip), vehicle: saline with Tween-80): 100 % of control
- T/C [2]: 91 % of control

SMILES: Cc1ccc(/C=C2/C=C(c3ccccc3)OC2=O)cc1
- T/C (dose: 50.0 mg/kg/injection, schedule: Q01DX009 (ip), vehicle: Klucel (hydroxypropylcellulose) (HPC)): 109 % of control
- T/C [20]: 109 % of control
- T/C [14]: 100 % of control
- T/C [21]: 100 % of control
- T/C [22]: 95 % of control
- T/C [15]: 90 % of control
